{"source": "Sander's compilation of Henry's law constants (doi:10.1039/p29940001777)", "origin": "cited, not measured here", "data": [{"assay": "Henry solubility constant Hcp at 298.15 K (mol/(m3 Pa))", "conditions": "reference: Abraham et al. (1994a); cited value", "values": [{"smiles": "OCCc1ccccc1", "note": "[2-phenylethanol]", "Henry solubility constant Hcp": 39}, {"smiles": "N#Cc1ccccc1", "note": "[benzenenitrile]", "Henry solubility constant Hcp": 0.5}, {"smiles": "O=[N+]([O-])c1ccccc1O", "note": "[2-nitrophenol]", "Henry solubility constant Hcp": 0.92}, {"smiles": "Oc1ccccc1I", "note": "[2-iodophenol]", "Henry solubility constant Hcp": 14}, {"smiles": "CN1CCCCC1", "note": "[N-methylpiperidine]", "Henry solubility constant Hcp": 0.24}, {"smiles": "Cc1cccc(C)c1N", "note": "[2,6-dimethylbenzenamine]", "Henry solubility constant Hcp": 2.7}, {"smiles": "COc1cccc(O)c1", "note": "[1-hydroxy-3-methoxybenzene]", "Henry solubility constant Hcp": 170}, {"smiles": "CCc1cccc(O)c1", "note": "[1-hydroxy-3-ethylbenzene]", "Henry solubility constant Hcp": 16}, {"smiles": "CCc1ccc(O)cc1", "note": "[1-hydroxy-4-ethylbenzene]", "Henry solubility constant Hcp": 13}, {"smiles": "Nc1ccc([N+](=O)[O-])cc1", "note": "[4-nitrobenzenamine]", "Henry solubility constant Hcp": 14000}, {"smiles": "Nc1ccc2ccccc2c1", "note": "[2-naphthylamine]", "Henry solubility constant Hcp": 120}, {"smiles": "N#Cc1cccnc1", "note": "[3-cyanopyridine]", "Henry solubility constant Hcp": 36}, {"smiles": "Oc1ccccc1Cl", "note": "[2-hydroxychlorobenzene]", "Henry solubility constant Hcp": 0.88}, {"smiles": "COc1ccccc1O", "note": "[1-hydroxy-2-methoxybenzene]", "Henry solubility constant Hcp": 5}, {"smiles": "Oc1ccccc1F", "note": "[2-hydroxyfluorobenzene]", "Henry solubility constant Hcp": 3.1}, {"smiles": "CCOCCO", "note": "[2-ethoxyethanol]", "Henry solubility constant Hcp": 33}, {"smiles": "CC(=O)c1ccncc1", "note": "[4-acetylpyridine]", "Henry solubility constant Hcp": 160}, {"smiles": "OCCCc1ccccc1", "note": "[3-phenyl-1-propanol]", "Henry solubility constant Hcp": 48}, {"smiles": "Cc1cc(C)cc(O)c1", "note": "[1-hydroxy-3,5-dimethylbenzene]", "Henry solubility constant Hcp": 16}, {"smiles": "Nc1ccccc1[N+](=O)[O-]", "note": "[2-nitrobenzenamine]", "Henry solubility constant Hcp": 100}, {"smiles": "OCc1ccccc1", "note": "[(hydroxymethyl)-benzene]", "Henry solubility constant Hcp": 29}, {"smiles": "COc1cccc(N)c1", "note": "[3-methoxy-benzenamine]", "Henry solubility constant Hcp": 90}, {"smiles": "O=Cc1cccnc1", "note": "[3-formylpyridine]", "Henry solubility constant Hcp": 65}, {"smiles": "Cc1ccc(O)c(C)c1", "note": "[1-hydroxy-2,4-dimethylbenzene]", "Henry solubility constant Hcp": 10}, {"smiles": "Nc1ccc(Cl)cc1", "note": "[1-amino-4-chlorobenzene]", "Henry solubility constant Hcp": 8.6}, {"smiles": "Cc1cc(O)ccc1Cl", "note": "[4-chloro-3-methylphenol]", "Henry solubility constant Hcp": 39}, {"smiles": "CC(=O)c1ccc(C)cc1", "note": "[4'-methylacetophenone]", "Henry solubility constant Hcp": 1.1}, {"smiles": "Nc1ccccc1Cl", "note": "[1-amino-2-chlorobenzene]", "Henry solubility constant Hcp": 1.6}, {"smiles": "Cc1ccccc1N", "note": "[2-methylbenzenamine]", "Henry solubility constant Hcp": 4.6}, {"smiles": "Cc1cccc(O)c1C", "note": "[1-hydroxy-2,3-dimethylbenzene]", "Henry solubility constant Hcp": 13}, {"smiles": "Nc1cccc([N+](=O)[O-])c1", "note": "[3-nitrobenzenamine]", "Henry solubility constant Hcp": 1200}, {"smiles": "CNc1ccccc1", "note": "[(methylamino)-benzene]", "Henry solubility constant Hcp": 1.1}, {"smiles": "c1ccc2ncccc2c1", "note": "[benzo[b]pyridine]", "Henry solubility constant Hcp": 6.4}, {"smiles": "Cc1ccc(C)c(O)c1", "note": "[1-hydroxy-2,5-dimethylbenzene]", "Henry solubility constant Hcp": 8.8}, {"smiles": "N#Cc1ccncc1", "note": "[4-cyanopyridine]", "Henry solubility constant Hcp": 11}, {"smiles": "CC(=O)c1cccnc1", "note": "[3-acetylpyridine]", "Henry solubility constant Hcp": 460}, {"smiles": "Nc1cccc2ccccc12", "note": "[1-naphthylamine]", "Henry solubility constant Hcp": 88}, {"smiles": "CCCc1ccc(O)cc1", "note": "[1-hydroxy-4-propylbenzene]", "Henry solubility constant Hcp": 8.6}, {"smiles": "Nc1cccc(Cl)c1", "note": "[1-amino-3-chlorobenzene]", "Henry solubility constant Hcp": 7.5}, {"smiles": "CCOP(=O)(OCC)OCC", "note": "[triethylphosphate]", "Henry solubility constant Hcp": 140}, {"smiles": "NC(=O)c1ccccc1", "note": "[benzamide]", "Henry solubility constant Hcp": 47000}, {"smiles": "COC(=O)c1ccccc1", "note": "[methyl benzoate]", "Henry solubility constant Hcp": 0.31}, {"smiles": "CCOC(=O)c1ccccc1", "note": "[ethyl benzoate]", "Henry solubility constant Hcp": 0.19}, {"smiles": "O=Cc1ccncc1", "note": "[4-formylpyridine]", "Henry solubility constant Hcp": 56}]}]}
